Test results reported in patent publication US20260191961A1, “RUTHENIUM (II) POLYPYRIDYL COMPLEX AS A PHOTO-SENSITISER IN PHOTODYNAMIC THERAPY, AND A PROCEDURE FOR MAKING SAID RUTHENIUM (II) POLYPYRIDYL COMPLEX” (UNIVERSITÀ DEGLI STUDI DI FIRENZE, priority 2022, published 2026).
Where two headings read alike, the source gives them in different places.

How the values were obtained:
[1] = test system: Methastatic Lung Adenocarcinoma (Calu-3); assay: In-vitro photo-cytotoxicity, MTT assay, Calu-3; assay type: cell-based; conditions: read-out: IC50 (maximum response set to zero)
Method: The activity of compound IIIa as a photosensitising agent in photodynamic therapy was evaluated on two in-vitro tumour models: squamous cell carcinoma of the epidermis (A431) and glioblastoma multiforme (U87MG). Cells cultured on 96-well plates were treated with increasing concentrations of IIIa dispersed in the culture medium for one hour. At the end of the incubation, the medium was replaced, and the cells were exposed to LED light (λmax 462 nm) for 30 minutes, or were left in the dark during the same time. At the end of the 30 minutes, the cells were placed back and maintained in the incubator for 24 hours before measuring the metabolic activity by MTT assay. Six replicates were used for each condition, and cell viability of 100% was calculated from the response of untreated cells not exposed to LED light. […]
The activity of compound IIIc as a photosensitising agent in photodynamic therapy was evaluated on an in-vitro tumour model, Methastatic Lung Adenocarcinoma (Calu-3), following the same protocol as compounds IIIa and IIIb. […]
The activity of compound IIIc encapsulated in cubosomes as a photosensitising agent in photodynamic therapy was evaluated on an in vitro tumour model: Methastatic Lung Adenocarcinoma (Calu-3), following the same protocol as compound IIIa and IIIb. […]

[2] = DHN assay (indirect UV-visible probe for 1O2); assay type: physicochemical; conditions: acetonitrile, LED 400-500 nm; for kobs, rate constant of the DHN photo-oxidation process: [DHN]=330 μM, [Ru]=10 μM; for Φ1O2 (b) singlet oxygen quantum yield: indirect UV-visible measurements with DHN probe, standard [Ru(phen)3]Cl2
Method: A confirmation of the production of singlet oxygen (^1O2) with such a high quantum yields by the three IIIa-c molecular systems was obtained using 1,5-dihydroxynaphthalene (DHN) as an indirect chemical probe for ^1O2 and [Ru(phen)3]Cl2 as a commercial standard. In the DHN assay, the probe is selectively and quantitatively oxidised in the presence of ^1O2 to give the corresponding photo-oxidation product 5-hydroxy-1,4-naphthalenedione (Juglone). The production of ^1O2 was assessed by monitoring the decrease in the DHN absorption band at λ=297 nm and the corresponding increase in the Juglone band at λ=427 nm. […] On this basis, the quantum yield of formation of ^1O2 can be obtained via the equation
where φΔ are the quantum yields of ^1O2 production from the photosensitising agents, k are the rate constants obtained from the DHN assays, labs represents the absolute value for the integration of the absorption of the photosensitising agents in the spectral emission region of the LED lamp (400 nm to 500 nm), and the subscript ST indicates the commercial standard [Ru(phen)3]Cl2.

[3] = Singlet oxygen quantum yield by direct 1O2 phosphorescence at 1270 nm; assay type: physicochemical; conditions: acetonitrile; direct phosphorescence signal of 1O2 at 1270 nm; reference [Ru(phen)3Cl2]
Method: The capacity of complexes IIIa-c to efficiently generate singlet oxygen (^1O2) upon irradiation with light is a key factor in the evaluation of their potential as photosensitising agents for applications in photodynamic therapy. In this connection, the singlet oxygen quantum yields of complexes IIIa-c were determined by means of direct phosphorescence signal of ^1O2 at 1270 nm generated by irradiation of acetonitrile solutions of the complexes and using dichlorotris(1,10-phenanthroline)ruthenium (II) chloride ([Ru(phen)3Cl2]) as a standard reference. A Horiba FluoroMax Plus spectrofluorometer was used for these measurements.

[4] = value of the commercial standard used for the calculation; cited from earlier work
[5] = test system: squamous cell carcinoma of the epidermis (A431); assay: In-vitro photo-cytotoxicity, MTT assay, A431; assay type: cell-based; conditions: 1 h incubation, MTT after 24 h, read-out: IC50 (maximum response set to zero)
Method: (§1) The activity of compound IIIa as a photosensitising agent in photodynamic therapy was evaluated on two in-vitro tumour models: squamous cell carcinoma of the epidermis (A431) and glioblastoma multiforme (U87MG). Cells cultured on 96-well plates were treated with increasing concentrations of IIIa dispersed in the culture medium for one hour. At the end of the incubation, the medium was replaced, and the cells were exposed to LED light (λmax 462 nm) for 30 minutes, or were left in the dark during the same time. At the end of the 30 minutes, the cells were placed back and maintained in the incubator for 24 hours before measuring the metabolic activity by MTT assay. Six replicates were used for each condition, and cell viability of 100% was calculated from the response of untreated cells not exposed to LED light. […] The high specificity of IIIa, defined as toxicity only when exposed to light, is evident from the difference in IC50 values, which indicate a potent cytotoxic activity in the presence of light irradiation and substantial inertia in the dark at the concentrations tested, as shown in Table 3.
The activity of compound IIIb as a photosensitising agent in photodynamic therapy was evaluated on an in vitro tumour model, i.e., squamous cell carcinoma of the epidermis (A431), following the same protocol as compound IIIa. […] The high specificity of IIIb, defined as toxicity only when exposed to light, is evident from the difference in IC50 values, which indicate a potent cytotoxic activity in the presence of light irradiation and substantial inertia in the dark at test concentrations, see Table 4.
The activity of compound IIIb encapsulated in cubosomes as a photosensitising agent in photodynamic therapy was evaluated on an in vitro tumour model: squamous cell carcinoma of the epidermis (A431), following the same protocol as compound IIIa and IIIb as such. […] However, the incorporation into a delivery system can bring numerous benefits, including increased distribution in the tumour after in vivo administration, increased stability and solubility, and improved crossing of biological barriers.

[6] = test system: glioblastoma multiforme (U87MG); assay: In-vitro photo-cytotoxicity, MTT assay, U87MG; assay type: cell-based; conditions: 1 h incubation, MTT after 24 h, read-out: IC50 (maximum response set to zero)
Method: as §1

[7] = 30′ LED light exposure (λmax 462 nm)

| Structure (SMILES) | IC50 ([1]; 30′ LED light exposure) [nM] | IC50 ([1]; in the dark) [nM] | kobs, rate constant of the DHN photo-oxidation process [2] | Φ1O2 (b) singlet oxygen quantum yield [2] | Φ1O2 (a) singlet oxygen quantum yield [3] | standard quantum yield of 1O2 production [4] | IC50 [5, 7] [nM] | IC50 ([5]; in the dark) [nM] | IC50 [6, 7] [nM] | IC50 ([6]; in the dark) [nM] |
| --- | --- | --- | --- | --- | --- | --- | --- | --- | --- | --- |
| F[P-](F)(F)(F)(F)F.F[P-](F)(F)(F)(F)F.O=C(c1ccnc(-c2cc(C(=O)N3CCOCC3)ccn2)c1)N1CCOCC1.[Ru+2].c1ccc2cc3nc4c5cccnc5c5ncccc5c4nc3cc2c1.c1ccc2cc3nc4c5cccnc5c5ncccc5c4nc3cc2c1 [Complex IIIc] | 63.9 | > 40000 | 1.83×10^−3 | 0.42 | 0.54 ± 0.6 |  |  |  |  |  |
| [Cl][Ru][Cl].c1cnc2c(c1)ccc1cccnc12.c1cnc2c(c1)ccc1cccnc12.c1cnc2c(c1)ccc1cccnc12 [[Ru(phen)3]Cl2, dichlorotris(1,10-phenanthroline)ruthenium (II) chloride, reference compound] |  |  | 9.41×10^−4 |  |  | 0.38 |  |  |  |  |
| O=C([O-])c1ccnc(-c2cc(C(=O)[O-])ccn2)c1.[Ru+2].c1ccc2cc3nc4c5cccnc5c5ncccc5c4nc3cc2c1.c1ccc2cc3nc4c5cccnc5c5ncccc5c4nc3cc2c1 [Complex IIIb, [Ru(4,4′-dicarboxylate-2,2′-bipyridine)(benzo[i]dipyrido[3,2-a:2′,3′-c]phenazine)2]] |  |  | 2.71×10^−3 | 0.47 | 0.50 ± 0.07 |  | 191 | > 40000 |  |  |
| Cc1ccnc(-c2cc(C)ccn2)c1.F[P-](F)(F)(F)(F)F.F[P-](F)(F)(F)(F)F.[Ru+2].c1ccc2cc3nc4c5cccnc5c5ncccc5c4nc3cc2c1.c1ccc2cc3nc4c5cccnc5c5ncccc5c4nc3cc2c1 [Complex IIIa] |  |  | 1.85×10^−3 | 0.44 | 0.54 ± 0.06 |  | 25.3 | > 40000 | 164 | > 40000 |
